Results taken from patent publication US20240307415A1, “STEROID COMPOUND, AND PHARMACEUTICAL COMPOSITION THEREOF AND USE THEREOF” (JIANGSU SIMCERE PHARMACEUTICAL CO., LTD., priority 2021, published 2024).

Test: Metabolic stability in mouse liver microsomes
Type: in vitro ADME
Conditions: CD-1, mouse, pH 7.4, 1 μM compound, 0.5 mg/mL microsome, NADPH 1 mM, 37° C., read-out: Mouse liver microsome stability t1/2
Source text: • 1. Human liver microsome (Corning 452117), beagle dog liver microsome (XENOTECH D1000), SD rat liver microsome (XENOTECH R1000), and CD-1 mouse liver microsome (XENOTECH M1000) • 2. Na2HPO4 (Tianjin Guangfu Fine Chemical Research Institute 20180130) • 3. KH2PO4 (Tianjin Guangfu Fine Chemical Research Institute 20180920) • 4. MgCl2 (Tianjin Guangfu Fine Chemical Research Institute 20191216) • 5. NADPH (Solarbio 1216C022) • 6. Positive control compound verapamil (Sigma MKBV4993V) • 7. AB Sciex API4000 liquid chromatography-mass spectrometry system
• 1. Preparation of 100 mM phosphate-buffered saline (PBS): 7.098 g Na2HPO4 was weighed. 500 mL pure water was added. The mixture was dissolved by sonication to give solution A. 3.400 g KH2PO4 was weighed. 250 mL pure water was added. […]
All data were calculated by Microsoft Excel software. The peak area was detected through an extracted ion chromatogram. The in vitro half-life (t1/2) of the compound was determined by linear fitting of the natural logarithm of compound elimination percentage over time.
In vitro half-life (t1/2) was calculated by the slope k: […]
The in vitro intrinsic clearance (in μL/min/mg protein) was calculated using the following formula: […]

## C[C@]12C=CC(=O)C=C1CC[C@@H]1[C@@H]2[C@@H](O)C[C@@]2(C)[C@H]1C[C@H]1O[C@@H](c3ccc(Cc4cc(N)c5c(c4)CCO5)cc3)O[C@]12C(=O)CO [Compound 009, (6aR,6bS,7S,8aS,8bS,10R,11aR,12aS,12bS)-10-(4-((7-amino-2,3-dihydrobenzofuran-5-yl)methyl)phenyl)-7-hydroxy-8b-(2-hydroxyacetyl)-6a,8a-dimethyl-6a,6b,7,8,8a,8b,11a,12,12a,12b-decahydro-1H-naphtho[2′,1′:4,5]indeno[1,2-d][1,3]dioxolan-4(2H)-one]
  half-life at 1 μM: 17.3 min
